In data set [1] the test system is helicoidal strips of rabbit aorta. Briefly: In vitro vasodilating activity: inhibition of K+-induced contraction of aorta strips. The class given is cell-based, male albino rabbits (New Zealand strain). The protocol: Aorta strips from male albino rabbits (New Zealand strain), prepared according to the method by Furchgott and Bhadrakom--J. Pharm. Exp. Ther. 108, 129 (1953), were contracted with a solution enriched in K^+ (100 mM). When the contraction was stable, the test compounds were added, according to the method of cumulative dosages.
The responses were isometrically recorded and expressed as contraction percentage inhibition. The concentration causing 50% inhibition (ED50) was calculated on the basis of the equation of the linear tract of the dose-response curves. The obtained results expressed as ED50 values are reported in tables I and II (which respectively relate to the compounds substituted at the 2-and and 5-positions), together with the values of the octanol/water partition coefficient. The potency ratio for each compound, in comparison with the starting mononitrate, IS-2-N and IS-5-N, is reported in the same tables.

The nature of data set [2]: Hypotensive activity in anesthetized rats (mean arterious pressure, i.v. bolus). The class given is in vivo, male albino rats (D strain, Charles River). The protocol:
Male albino rats were used (D strain, Charles River) anesthetized with a starting dose of sodium pentobarbital of 60 mg/kg i.p. and thermoregulated at 37° C. Mean arterious pressure was monitored at right carotidis arteria, while the compounds were administered as a bolus into the jugular vein, at constant volumes of 0.3 and 1 ml/kg.
The results, expressed as ED20, dose causing a 20% reduction in the mean arterious pressure (graphically calculated) are expressed in table III, relating to compounds substituted at the 2- and 5-positions.

Data set [3] can be described thus: Arterious pressure in the anesthetized rabbit, in vein administration. The class given is in vivo. The source says:
The above results are confirmed also in another animal species.

A short description of data set [4]: octanol/water partition coefficient. The format is physicochemical.

Molecules are shown by their SMILES.

Consider one compound from patent US4956384A, “1,4:3,6-dianhydrosorbitol 2-mononitrate and 5-mononitrate esters and pharmaceutical compositions therefrom” (Chiesi Farmaceutici S.p.A., priority 1987, dated 1990).

In the case of `COc1cc(C(=O)O[C@H]2CO[C@H]3[C@@H]2OC[C@H]3O[N+](=O)[O-])cc(OC)c1OC` [II, 1,4:3,6-dianhydrosorbitol 2-(3,4,5-trimethoxy)-benzoate 5-nitrate], in data set [1] (Oryctolagus cuniculus, Table I, 2-acyl derivatives of isosorbide 5-nitrate, K+ 100 mM, read-out: ED50 (concentration causing a 50% inhibition of contraction)), the IC50 turned out to be 2720 nM. Besides, the “Potency ratios (confidence limits)” value in data set [1] (Table I, in comparison with isosorbide 5-nitrate) is 113.48 (72.30-172.85). Also, the “Potency ratio, In vitro” value in data set [1] (Table III, relative to IS-5-N) was 113. Besides, the “times more active than the starting mononitrate” value in data set [1] (in vitro, II vs IS-5N, X vs IS-2N) is reported as “about 110 times”. The “Potency ratio, In vivo” value in data set [2] (Table III, relative to IS-5-N) is given as “≈ 79”. Also, in data set [2] (iv, anesthetized rat, read-out: ED20, dose reducing by 20% the mean arterious pressure (graphically calculated)), the ED20 is 1.9 µmol/kg. Further, in data set [2] (rat), the “hypotensive activity in words” value was “remarkable hypotensive activity in both "in vitro" and "in vivo" tests”. Also, the “reduction in arterious pressure” value in data set [3] was “dose-depending reduction in arterious pressure”. The “strength of arterious pressure reduction higher than that of IS-2N” value in data set [3] (vs IS-2N) is “about 10 times”. Moreover, the “strength of arterious pressure reduction higher than that of IS-5N” value in data set [3] (vs IS-5N) is about 100 times. Besides, the “times more lipophilic than the starting mononitrate” value in data set [4] was “about 140 times”. Besides, the logP in data set [4] (octanol/water, Table I, 2-acyl derivatives of isosorbide 5-nitrate, read-out: Partition coeff. (octanol/H2O) (converted)) was 2.09.
